Assay results as given in PubChem BioAssay (NCI).
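GI50 marks 50% less growth. TGI: concentration producing complete growth inhibition.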

Assays:
Experiment in all cases: NCI anticancer screen, dose series, 384-well format
[1] = system: HT29 colon
[2] = system: PC-3 prostate
[3] = system: OVCAR-3 ovarian
[4] = system: UACC-62 melanoma
[5] = system: HCT-15 colon
[6] = system: OVCAR-5 ovarian
[7] = system: RXF 393 renal
[8] = system: MDA-MB-435 melanoma
[9] = system: NCI-H226 lung
[10] = system: HOP-62 NSCLC
[11] = system: RPMI-8226 leukemia
[12] = system: MOLT-4 leukemia
[13] = system: SK-OV-3 ovarian
[14] = system: HS 578T breast
[15] = system: NCI-H460 NSCLC
[16] = system: IGROV1 ovarian
[17] = system: SR leukemia
[18] = system: CAKI-1 renal
[19] = system: MDA-MB-468 breast
[20] = system: SNB-75 CNS
[21] = system: 786-0 renal
[22] = system: MALME-3M melanoma
[23] = system: HL-60(TB) leukemia
[24] = system: HCT-116 colon
[25] = system: DU-145 prostate
[26] = system: NCI-H322M lung
[27] = system: MCF7 breast
[28] = system: SK-MEL-2 melanoma
[29] = system: A498 renal
[30] = system: OVCAR-4 ovarian
[31] = system: SK-MEL-5 melanoma
[32] = system: EKVX NSCLC
[33] = system: SF-539 CNS
[34] = system: SW-620 colon
[35] = system: A549 NSCLC
[36] = system: NCI-H522 lung
[37] = system: SK-MEL-28 melanoma
[38] = system: KM12 colon
[39] = system: LOX IMVI melanoma
[40] = system: SF-295 CNS
[41] = system: TK-10 renal
[42] = system: T-47D breast
[43] = system: BT-549 breast
[44] = system: HOP-92 NSCLC
[45] = system: UACC-257 melanoma
[46] = system: SNB-19 CNS
[47] = system: CCRF-CEM leukemia
[48] = system: K-562 leukemia
[49] = system: HCC-2998 colon
[50] = system: U251 glioblastoma
[51] = system: NCI-H23 lung
[52] = system: M14 melanoma
[53] = system: MDA-MB-231 breast
[54] = system: NCI/ADR-RES ovarian
[55] = system: COLO 205 colon
[56] = system: OVCAR-8 ovarian
[57] = system: SF-268 CNS
[58] = system: UO-31 renal
[59] = system: ACHN renal
[60] = system: SN12C renal

With Cc1nc2c(-c3cnc(N)nc3)nc(N3CCOCC3)nc2n1C(C)C the GI50 [1] was 0.191 µM, the TGI [1] was greater than 100 µM and the GI50 [2] was 0.0528 µM. The TGI [2] was greater than 100 µM, the GI50 [3] was 0.107 µM and the TGI [3] was 0.713 µM. The GI50 [4] was 0.147 µM, the TGI [4] was 0.847 µM and the GI50 [5] was 0.0761 µM. It also gave a TGI [5] greater than 100 µM, a GI50 [6] of 0.19 µM and a TGI [6] greater than 100 µM. For the same molecule, the GI50 [7] was 0.0789 µM, the TGI [7] was 0.379 µM and the GI50 [8] was 0.184 µM. For the same molecule, the TGI [8] was 0.845 µM, the GI50 [9] was 0.122 µM and the TGI [9] was 2.39 µM. The GI50 [10] was 0.158 µM, the TGI [10] was 13 µM and the GI50 [11] was 0.0596 µM. For the same molecule, the TGI [11] was 0.252 µM, the GI50 [12] was 0.0618 µM and the TGI [12] was 0.344 µM. It also gave a GI50 [13] of 0.0927 µM, a TGI [13] of 0.43 µM and a GI50 [14] of 0.0661 µM. It also gave a TGI [14] of 0.273 µM, a GI50 [15] of 0.039 µM and a TGI [15] greater than 100 µM. For the same molecule, the GI50 [16] was 0.0218 µM, the TGI [16] was 0.133 µM and the GI50 [17] was 0.195 µM. For the same molecule, the TGI [17] was 0.619 µM, the GI50 [18] was 0.0751 µM and the TGI [18] was 0.581 µM. For the same molecule, the GI50 [19] was 0.0659 µM, the TGI [19] was 0.351 µM and the GI50 [20] was 0.0355 µM. The TGI [20] was 0.22 µM, the GI50 [21] was 0.246 µM and the TGI [21] was 5.94 µM. For the same molecule, the GI50 [22] was 0.0443 µM, the TGI [22] was 0.262 µM and the GI50 [23] was 0.156 µM. For the same molecule, the TGI [23] was 1.04 µM, the GI50 [24] was 0.479 µM and the TGI [24] was greater than 100 µM. For the same molecule, the GI50 [25] was 0.149 µM, the TGI [25] was greater than 100 µM and the GI50 [26] was 0.125 µM. The TGI [26] was 50.5 µM, the GI50 [27] was 0.036 µM and the TGI [27] was greater than 100 µM. It also gave a GI50 [28] of 0.566 µM, a TGI [28] of 0.941 µM and a GI50 [29] of 0.0559 µM. The TGI [29] was 0.322 µM, the GI50 [30] was 0.118 µM and the TGI [30] was 0.803 µM. For the same molecule, the GI50 [31] was 0.0878 µM, the TGI [31] was 0.337 µM and the GI50 [32] was 0.0866 µM. The TGI [32] was 0.38 µM, the GI50 [33] was 0.167 µM and the TGI [33] was 1.12 µM. For the same molecule, the GI50 [34] was 0.46 µM, the TGI [34] was greater than 100 µM and the GI50 [35] was 0.108 µM. For the same molecule, the TGI [35] was 3.6 µM, the GI50 [36] was 0.0922 µM and the TGI [36] was 0.941 µM. The GI50 [37] was 0.153 µM, the TGI [37] was 0.969 µM and the GI50 [38] was 0.27 µM. It also gave a TGI [38] greater than 100 µM, a GI50 [39] of 0.232 µM and a TGI [39] of 0.86 µM. For the same molecule, the GI50 [40] was 0.0791 µM, the TGI [40] was 0.431 µM and the GI50 [41] was 0.0549 µM. For the same molecule, the TGI [41] was 0.465 µM, the GI50 [42] was 0.0313 µM and the TGI [42] was 0.166 µM. The GI50 [43] was 0.0953 µM, the TGI [43] was 0.469 µM and the GI50 [44] was 0.0675 µM. For the same molecule, the TGI [44] was 0.435 µM.
O=C1NC(=O)C(c2cnc3ccccn23)=C1c1cn2c3c(cc(F)cc13)CN(C(=O)N1CCCCC1)CC2 showed a GI50 [1] of 10.3 µM, a TGI [1] of 24.5 µM and a GI50 [2] of 2.17 µM. The TGI [2] was 18.8 µM, the GI50 [45] was 18.6 µM and the TGI [45] was 33.7 µM. It also gave a GI50 [46] of 1.34 µM, a TGI [46] of 37.9 µM and a GI50 [4] of 0.513 µM. For the same molecule, the TGI [4] was 3.74 µM, the GI50 [5] was 12.4 µM and the TGI [5] was 34.1 µM. The GI50 [6] was 23 µM, the TGI [6] was 55.3 µM and the GI50 [7] was less than 0.01 µM. For the same molecule, the TGI [7] was 0.362 µM, the GI50 [8] was 14.8 µM and the TGI [8] was 40.4 µM. The GI50 [47] was less than 0.01 µM, the TGI [47] was 0.245 µM and the GI50 [48] was less than 0.01 µM. For the same molecule, the TGI [48] was 19.1 µM, the GI50 [9] was 1.84 µM and the TGI [9] was 11.4 µM. It also gave a GI50 [10] of 0.172 µM, a TGI [10] of 2.58 µM and a GI50 [11] of 0.901 µM. It also gave a TGI [11] of 20.7 µM, a GI50 [12] of less than 0.01 µM and a TGI [12] of 0.0107 µM. For the same molecule, the GI50 [49] was 0.128 µM, the TGI [49] was 0.773 µM and the GI50 [50] was 0.0303 µM. For the same molecule, the TGI [50] was 0.332 µM, the GI50 [51] was 11 µM and the TGI [51] was 25.3 µM. It also gave a GI50 [14] of less than 0.01 µM, a GI50 [15] of 0.701 µM and a TGI [15] of 3.17 µM. The GI50 [16] was 2.73 µM, the TGI [16] was 22.2 µM and the GI50 [18] was 0.259 µM. The TGI [18] was 51.4 µM, the GI50 [19] was 0.0283 µM and the TGI [19] was 0.116 µM. For the same molecule, the GI50 [20] was less than 0.01 µM, the TGI [20] was 14.4 µM and the GI50 [52] was 2.18 µM. The TGI [52] was 12 µM, the GI50 [21] was 0.0779 µM and the TGI [21] was 12.4 µM. For the same molecule, the GI50 [22] was 11.1 µM, the TGI [22] was 24 µM and the GI50 [23] was 0.464 µM. The TGI [23] was 2.72 µM, the GI50 [24] was 1.12 µM and the TGI [24] was 28.4 µM. The GI50 [25] was 2.18 µM, the TGI [25] was 8.62 µM and the GI50 [26] was 7.72 µM. For the same molecule, the TGI [26] was 29.2 µM, the GI50 [27] was less than 0.01 µM and the TGI [27] was 17.1 µM. For the same molecule, the GI50 [53] was 16.3 µM, the TGI [53] was 54.9 µM and the GI50 [54] was 5.91 µM. The TGI [54] was 21.2 µM, the GI50 [29] was 0.0156 µM and the TGI [29] was 13.2 µM. It also gave a GI50 [30] of 11.4 µM, a TGI [30] of 32 µM and a GI50 [31] of 4.08 µM. For the same molecule, the TGI [31] was 15.4 µM, the GI50 [55] was 12.7 µM and the TGI [55] was 26 µM. It also gave a GI50 [32] of 11.7 µM, a TGI [32] of 26.2 µM and a GI50 [56] of 0.833 µM. The TGI [56] was 14.4 µM, the GI50 [33] was less than 0.01 µM and the TGI [33] was 12.7 µM. For the same molecule, the GI50 [34] was 0.379 µM, the TGI [34] was 15 µM and the GI50 [35] was 2.36 µM. It also gave a TGI [35] of 27.8 µM, a GI50 [57] of 0.138 µM and a TGI [57] of 0.491 µM. It also gave a GI50 [36] of 13.5 µM, a TGI [36] of 26.7 µM and a GI50 [37] of 15.2 µM. For the same molecule, the TGI [37] was 29.2 µM, the GI50 [38] was 4.89 µM and the TGI [38] was 21.6 µM. For the same molecule, the GI50 [39] was 0.77 µM, the TGI [39] was 9.29 µM and the GI50 [58] was less than 0.01 µM. For the same molecule, the TGI [58] was 0.0398 µM, the GI50 [59] was 0.743 µM and the TGI [59] was 11.3 µM. For the same molecule, the GI50 [40] was 0.0175 µM, the TGI [40] was 0.735 µM and the GI50 [60] was 10.7 µM. For the same molecule, the TGI [60] was 38.9 µM, the GI50 [41] was 0.0598 µM and the TGI [41] was 43.7 µM. For the same molecule, the GI50 [42] was 12.7 µM, the TGI [42] was 28 µM and the GI50 [43] was less than 0.01 µM. The TGI [43] was 18.6 µM, the GI50 [44] was 1.32 µM and the TGI [44] was greater than 100 µM.
